The values below come from ChEMBL document CHEMBL1201862, “PubChem BioAssay data set” (2004).

Among the test systems are 786-0; DLD-1; HCT-116; HCT-15; HT-29; K562; LXFL 529; M19-MEL; NCI-H226; NCI-H460; OVCAR-3; OVCAR-4; SF-295; SNB-78; U-251; UACC-257.
Common to all, as to assay: NCI tumour cell line growth inhibition, 48 h

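Cultured in 96-well plates, cells were exposed to test compound for 48 hours across five concentrations. GI50: concentration for 50% inhibition of growth.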 The source made the active and inactive calls. Cut-off read from the data, not from the text of the source: active = GI50 up to about 1.1 µM and inactive = higher.

Regarding `CN1C(=O)CC2(C)c3cc(C=O)ccc3N(C)C12` (stereo not given), the GI50 in the experiment on 786-0 was > 100 µM (inactive); in the experiment with DLD-1, > 100 µM (inactive); in the experiment with HCT-116, > 100 µM (inactive); in the experiment with HCT-15, greater than 100 µM; in the experiment on HT-29, > 100 µM (inactive); in the experiment on K562, > 100 µM (inactive). In addition, the GI50 with LXFL 529, in the experiment on M19-MEL, in the experiment with NCI-H226, with NCI-H460, with OVCAR-3 and in the experiment on OVCAR-4 was > 100 µM (inactive) in each case. The GI50 with SF-295, in the experiment on SNB-78, in the experiment on U-251 and in the experiment with UACC-257 was > 100 µM (inactive) each time.
In the case of `CC(C)(C)NNC(=O)/C(=C/c1ccc(Oc2ccc(Cl)c(Cl)c2)cc1)NC(=O)c1ccccc1`, the GI50 is 59.6 µM (inactive) in the experiment with 786-0; 31.1 µM (inactive) in the experiment on DLD-1; > 100 µM (inactive) with HCT-116; greater than 100 µM in the experiment on HCT-15; > 100 µM (inactive) in the experiment with HT-29; 42.5 µM (inactive) in the experiment with K562. Also, the GI50 in the experiment with LXFL 529 is > 100 µM (inactive); in the experiment on M19-MEL, > 100 µM (inactive); in the experiment on NCI-H226, > 100 µM (inactive); in the experiment with NCI-H460, 40.6 µM (inactive); in the experiment on OVCAR-3, > 100 µM (inactive); in the experiment with OVCAR-4, > 100 µM (inactive). Also, the GI50 in the experiment with SF-295, in the experiment on SNB-78, in the experiment with U-251 and in the experiment with UACC-257 was > 100 µM (inactive) throughout.
Consider `COC(=O)C1CCC(N2C(=O)CCC2C(=O)OC)=N1` (stereo not given), for which the GI50 is > 100 µM (inactive) in the experiment with 786-0; > 100 µM (inactive) in the experiment with DLD-1; > 100 µM (inactive) with HCT-116; greater than 100 µM with HCT-15; > 100 µM (inactive) with HT-29; > 100 µM (inactive) with K562. In addition, the GI50 with LXFL 529, in the experiment with M19-MEL, with NCI-H226, in the experiment on NCI-H460, with OVCAR-3 and in the experiment on OVCAR-4 was > 100 µM (inactive) each time. Besides, the GI50 with SF-295, in the experiment with SNB-78, in the experiment with U-251 and in the experiment on UACC-257 was > 100 µM (inactive) throughout.
Turning to `CCOC(=O)NC(=O)c1cn(CCCCCOC(=O)NCCCCCCNC(=O)OCCCCCn2cc(C(=O)NC(=O)OCC)c(=O)[nH]c2=O)c(=O)[nH]c1=O`, the GI50 with 786-0 is > 100 µM (inactive); with DLD-1, > 100 µM (inactive); with HCT-116 it was > 100 µM (inactive); with HCT-15, greater than 100 µM; in the experiment on HT-29, > 100 µM (inactive); in the experiment with K562 it was > 100 µM (inactive). The GI50 with LXFL 529, with M19-MEL, in the experiment on NCI-H226, in the experiment with NCI-H460, in the experiment with OVCAR-3 and in the experiment with OVCAR-4 was > 100 µM (inactive) each time. Further, the GI50 in the experiment with SF-295, with SNB-78, in the experiment with U-251 and in the experiment with UACC-257 was > 100 µM (inactive) in each case.
Consider `CC(=O)OCC1OC(n2c(-c3ccc(C)cc3)cc(-c3ccccc3)c(C#N)c2=O)C(OC(C)=O)C(OC(C)=O)C1OC(C)=O` (stereo not given), for which the GI50 with 786-0 is > 100 µM (inactive); with DLD-1, > 100 µM (inactive); with HCT-116, > 100 µM (inactive); with HCT-15, greater than 100 µM; in the experiment on HT-29, > 100 µM (inactive); with K562 it was > 100 µM (inactive). For the same compound, the GI50 in the experiment with LXFL 529, in the experiment on M19-MEL, with NCI-H226, in the experiment on NCI-H460, in the experiment on OVCAR-3 and in the experiment on OVCAR-4 was > 100 µM (inactive) throughout. Also, the GI50 in the experiment with SNB-78, in the experiment with U-251 and with UACC-257 was > 100 µM (inactive) each time.
For the compound `O=C(N/N=C/c1ccccc1O)N/N=C/c1ccccc1O`, the GI50 in the experiment on 786-0 was > 100 µM (inactive); in the experiment on DLD-1, > 100 µM (inactive); with HCT-116, > 100 µM (inactive); in the experiment with HCT-15, greater than 100 µM; in the experiment with HT-29, > 100 µM (inactive); with K562, > 100 µM (inactive). In addition, the GI50 in the experiment on LXFL 529, in the experiment with M19-MEL, in the experiment on NCI-H226, with NCI-H460, in the experiment on OVCAR-3 and in the experiment with OVCAR-4 was > 100 µM (inactive) each time. The GI50 with SF-295, in the experiment on SNB-78, in the experiment with U-251 and in the experiment with UACC-257 was > 100 µM (inactive) each time.
On to `Cc1ccc(-c2cc(=O)c3cc(C)c(C)c(C(=O)O)c3o2)cc1C`, for which the GI50 was > 100 µM (inactive) in the experiment on 786-0; > 100 µM (inactive) with DLD-1; > 100 µM (inactive) in the experiment on HCT-116; greater than 100 µM in the experiment on HCT-15; > 100 µM (inactive) in the experiment with HT-29; > 100 µM (inactive) in the experiment on K562. Moreover, the GI50 in the experiment on LXFL 529, in the experiment with M19-MEL, in the experiment on NCI-H226, in the experiment with NCI-H460, in the experiment on OVCAR-3 and in the experiment with OVCAR-4 was > 100 µM (inactive) in each case. Further, the GI50 with SF-295, in the experiment with SNB-78, with U-251 and with UACC-257 was > 100 µM (inactive) throughout.
For the compound `COC(=O)C(=O)C(C(=O)C(=O)Nc1ccc(Cl)cc1C)c1nc2ccc(C(=O)c3ccccc3)cc2nc1O` (stereo not given), the GI50 in the experiment on 786-0 was > 100 µM (inactive); in the experiment on DLD-1, 55.8 µM (inactive); in the experiment on HCT-116, > 100 µM (inactive); in the experiment on HCT-15 it was greater than 100 µM; in the experiment with HT-29, > 100 µM (inactive); in the experiment on K562, 29 µM (inactive). The GI50 in the experiment with LXFL 529 is 65.2 µM (inactive); with M19-MEL, > 100 µM (inactive); with NCI-H226 it was 33.5 µM (inactive); with NCI-H460 it was > 100 µM (inactive); with OVCAR-3, > 100 µM (inactive); with OVCAR-4, > 100 µM (inactive). In addition, the GI50 with SF-295 is > 100 µM (inactive); in the experiment on SNB-78 it was > 100 µM (inactive); in the experiment on U-251, > 100 µM (inactive); in the experiment on UACC-257 it was 97.9 µM (inactive).
Regarding `O=c1[nH]c2c(O)cccc2c2cc3c(c(O)c12)OCO3` [NARCIPRIMINE], the GI50 in the experiment with 786-0 was 25.5 µM (inactive); in the experiment on DLD-1, 14.6 µM (inactive); with HCT-116 it was 13.8 µM (inactive); with HCT-15 it was 22.5 µM; in the experiment on HT-29, 21.2 µM (inactive); with K562 it was 17.5 µM (inactive). For the same compound, the GI50 with LXFL 529 is 18.3 µM (inactive); in the experiment on M19-MEL, 20.3 µM (inactive); in the experiment on NCI-H226, 17.4 µM (inactive); in the experiment with NCI-H460, 14.6 µM (inactive); in the experiment on OVCAR-3, 21.5 µM (inactive); in the experiment on OVCAR-4 it was 11.9 µM (inactive). In addition, the GI50 in the experiment on SF-295 is 20.1 µM (inactive); in the experiment on SNB-78 it was 21.3 µM (inactive); in the experiment on U-251 it was 16 µM (inactive); in the experiment on UACC-257, 19.7 µM (inactive).
In the case of `CCN(CC)CCNc1ccc2ncn3c4ccccc4c(=O)c1c23`, the GI50 in the experiment with 786-0 was 3.43 µM (inactive); in the experiment with DLD-1, 3.5 µM (inactive); in the experiment with HCT-116 it was 0.916 µM (active); with HCT-15, 3.96 µM; in the experiment with HT-29, 2.2 µM (inactive); with K562, 8.49 µM (inactive). Further, the GI50 is 3.77 µM (inactive) in the experiment on LXFL 529; 3.63 µM (inactive) with M19-MEL; 2.18 µM (inactive) in the experiment on NCI-H226; 2.26 µM (inactive) with NCI-H460; 12.8 µM (inactive) in the experiment on OVCAR-3; 2.96 µM (inactive) in the experiment with OVCAR-4. Besides, the GI50 in the experiment with SF-295 was 3.58 µM (inactive); in the experiment with SNB-78, 3.03 µM (inactive); with U-251, 4.52 µM (inactive); in the experiment with UACC-257, 4.23 µM (inactive).
As to `CC(=O)c1ccc(NC(=O)C(=O)CC(=O)c2sc(-n3nc(-c4ccccc4)cc3-c3ccccc3)nc2C)cc1`, the GI50 in the experiment with 786-0 is > 100 µM (inactive); in the experiment on DLD-1 it was > 100 µM (inactive); with HCT-116, > 100 µM (inactive); in the experiment with HCT-15 it was greater than 100 µM; in the experiment with HT-29, > 100 µM (inactive); with K562, > 100 µM (inactive). The GI50 in the experiment with LXFL 529, in the experiment on M19-MEL, with NCI-H226, in the experiment on NCI-H460, in the experiment with OVCAR-3 and in the experiment on OVCAR-4 was > 100 µM (inactive) each time. The GI50 with SF-295, in the experiment on SNB-78, in the experiment with U-251 and in the experiment on UACC-257 was > 100 µM (inactive) throughout.
Take `Cc1ccc(S(=O)(=O)NNC(=O)c2sc(-c3nc(C)c(C(=O)NNS(=O)(=O)c4ccc(C)cc4)s3)nc2C)cc1`: the GI50 is 69.7 µM (inactive) in the experiment on 786-0; 73.8 µM (inactive) with DLD-1; 84.5 µM (inactive) in the experiment on HCT-116; 47.1 µM in the experiment with HCT-15; 57.3 µM (inactive) with HT-29; 45.9 µM (inactive) in the experiment on K562. Besides, the GI50 in the experiment with LXFL 529 is 62.8 µM (inactive); in the experiment on M19-MEL it was > 100 µM (inactive); in the experiment on NCI-H226, 50.7 µM (inactive); with NCI-H460, > 100 µM (inactive); in the experiment with OVCAR-3 it was > 100 µM (inactive); in the experiment with SF-295 it was > 100 µM (inactive). Further, the GI50 in the experiment on SNB-78, in the experiment with U-251 and in the experiment on UACC-257 was > 100 µM (inactive) each time.
